pIC50: −log10 of the molar value. Where “and” joins values, the source holds several entries; their conditions need not be identical. Equal entries are not always repeated.
How the values were obtained:
[1] = system: D. discoideum cell growth; test: D. discoideum growth assay; assay type: cell-based, Dictyostelium discoideum
Protocol: Wild type (A×2) D. discoideum cells were grown in shaking culture (in HL5 medium) for two days prior to growth assays. Cells (9900 in 495 μl of media) were added to each well of a 24 well plate and 5 μl of cannabinoid in DMSO (or DMSO only) was added to each well to achieve each described concentration (1% final DMSO concentration), and cells were maintained at 22° C. Cells were counted at 72 hours, and then every 24 hours. Quadruplicate repeats were used for each concentration.

[2] = system: PTZ-induced generalised seizures; test: Acute PTZ-induced model of generalised seizure; assay type: in vivo, rat
Protocol: Adult male Wistar Kyoto rats were used in the acute PTZ model of seizure (>P24, 70-110 g). Animals were housed five per cage in a heat regulated room (21° C.) on a 12:12 h day/night cycle (lights on 0800) in 50% humidity and given ad libitum access to standard laboratory chow (PCD Mod C, Special Diet Services, Wiltham, UK) and water. All procedures were undertaken during white light hours.
A PTZ (Sigma-Aldrich, Poole, UK) stock solution was made in 0.9% w/v NaCl for the experimental procedure.
PTZ antagonises GABA inhibition via binding to the t-butyl-bicycl-phosphorothionate site of GABAA receptors. Moreover, this chemically-induced model can be indicative of effects against absence seizures. PTZ (90 mg/kg) was used to induce seizures in adult male Wistar rats (n=15 per group) with experiment dose randomised using a Latin square design. Animals were placed in their 6 L Perspex tanks and allowed to acclimatise to their environment for 10 min, before receiving one of the cannabinoid doses (see Table 5) in vehicle, or volume-matched dose of vehicle alone to serve as a negative control. 60 min after test compound or vehicle administration, animals were injected with PTZ (90 mg/kg, i.p.) to induce seizures and animal behaviour was recorded for 30 min.
Videos of PTZ-induced seizures were scored offline with a standard seizure severity scale appropriate for generalised seizures (Table 6).
Videos of seizure behaviour generated from the custom built observational system were scored offline according to seizure scales appropriate for PTZ model (Table 6) using Observer Video-Pro software (Noldus, Wageningen, The Netherlands). For the PTZ model of seizure, intra- and inter-observer agreements of behaviour scoring were assessed using the reliability analysis function of the observer Video-Pro software: 1 s tolerance window; Cohen's Kappa coefficient≥0.95.
Specific markers of seizure behaviour and development were assessed and compared between vehicle control and drug groups. The latency (s) to seizure onset and the percentage of animals that developed tonic-clonic seizures was noted (see Table 6). In addition, the maximum seizure severity and the percentage mortality in each group were determined for the acute PTZ model of generalised seizure.
The effect of drug on latency to seizure onset and maximum seizure severity were assessed using Krustal-Wallis with post-hoc Mann-Whitney U-tests. Drug effects on the percentage of animals that developed tonic-clonic seizures and percentage mortality were assessed using Chi-squared with post-hoc Fisher exact tests. In all cases, P≤0.05 was considered significant.

[3] = system: seizures; conditions: mice, after pro-convulsant drugs or an electric current; cited from earlier work
[4] = Toxicokinetics from toxicological studies in dogs, daily oral (gavage) administration; assay type: in vivo, dog; conditions: CBD 100 mg/kg oral
Protocol: Samples were taken from the jugular vein into lithium heparin. Samples were mixed gently by hand then continuously for at least 2 minutes on automatic mixer and placed in a Kryorack until centrifugation, which was carried out at approximately 4° C. as soon as practicable. The resultant plasma was separated under low light conditions, transferred to uniquely labelled clear glass vials, placed in light proof boxes and frozen immediately at <−50° C.

[5] = Day 1, females, individual animals (Subjects 115-120)

With `C=C(C)[C@@H]1CCC(C)=C[C@H]1c1c(O)cc(CCCCC)cc1O` [CBD, Cannabidiol] the pIC50 ([1]; Dictyostelium discoideum, secondary plot of cell density at 144 hours, read-out: growth inhibitory constant (IC50)) was 5.79, the concentration blocking growth ([1]; growth over one week) was 20 µM and the “concentration significantly inhibiting cell growth (P<0.05)” value ([1]; growth over one week) was 0.5 µM. For the same molecule, the “effect on percentage mortality” value ([2]; 100 mg/kg CBD (P≤0.01), 100 mg/kg CBDA (P=0.0656), CBD/CBDA ratio (P=0.0656)) was “significantly reduced”, the “effect on latency to seizure onset” value ([2]; 100 mg/kg CBD (P≤0.05), CBD/CBDA 9:1 (P≤0.05), CBDA 100 mg/kg (P=0.0929)) was “significantly increasing latency to onset” and the “median score for the maximum seizure severity” value ([2]; 100 mg/kg, PTZ 90 mg/kg i.p. 60 min after compound, scale of Table 6, n=15) was 5. The prevention of seizures [3] was “able to prevent seizures in mice”, the tl/2 ([4]; Day 1, females, Geometric Mean) was 5.9 h and the AUC0-inf ([4]; Day 1, females, Max) was 32800 ng·h/mL. The AUC0-t ([4]; Day 1, females, Max) was 32400 ng·h/mL, the CL/F ([4]; Day 1, females, Max) was 632 mL/min/kg and the Cmax ([4]; Day 1, females, Max) was 3780 ng/mL. The tl/2 ([4]; Day 1, females, Max) was 8.4 h, the tmax ([4]; Day 1, females, Max) was 8.0 h and the tl/2 ([4]; Day 1, females, Mean, N=4) was 6.1 h. It also gave a tl/2 ([4]; Day 1, females, Median) of 5.7 h, an AUC0-inf ([4]; Day 1, females, Min) of 2640 ng·h/mL and an AUC0-t ([4]; Day 1, females, Min) of 2540 ng·h/mL. It also gave a CL/F ([4]; Day 1, females, Min) of 50.8 mL/min/kg, a Cmax ([4]; Day 1, females, Min) of 411 ng/mL and a tl/2 ([4]; Day 1, females, Min) of 4.5 h. The tmax ([4]; Day 1, females, Min) was 1.0 h, the AUC0-inf [4, 5] was 32800 ng·h/mL and 3280 ng·h/mL and 22400 ng·h/mL and 2640 ng·h/mL and the AUC0-t [4, 5] was 31300 ng·h/mL and 3000 ng·h/mL and 20000 ng·h/mL and 22600 ng·h/mL and 2540 ng·h/mL and 32400 ng·h/mL. The CL/F [4, 5] was 50.8 mL/min/kg and 508 mL/min/kg and 74.5 mL/min/kg and 632 mL/min/kg, the Cmax [4, 5] was 3780 ng/mL and 655 ng/mL and 2520 ng/mL and 1900 ng/mL and 411 ng/mL and 3270 ng/mL and the tl/2 [4, 5] was 4.7 h and 8.4 h and 6.6 h and 4.5 h. For the same molecule, the tmax [4, 5] was 2.0 h and 8.0 h and 1.0 h, the tl/2 ([4]; Day 1, males, Geometric Mean) was 7.0 h and the AUC0-inf ([4]; Day 1, males, Max) was 60500 ng·h/mL. The AUC0-t ([4]; Day 1, males, Max) was 51800 ng·h/mL, the CL/F ([4]; Day 1, males, Max) was 82.1 mL/min/kg and the Cmax ([4]; Day 1, males, Max) was 4570 ng/mL. The tl/2 ([4]; Day 1, males, Max) was 8.6 h, the tmax ([4]; Day 1, males, Max) was 8.0 h and the tl/2 ([4]; Day 1, males, Mean, N=5) was 7.2 h. For the same molecule, the tl/2 ([4]; Day 1, males, Median) was 7.7 h, the AUC0-inf ([4]; Day 1, males, Min) was 20300 ng·h/mL and the AUC0-t ([4]; Day 1, males, Min) was 17200 ng·h/mL. It also gave a CL/F ([4]; Day 1, males, Min) of 27.5 mL/min/kg, a Cmax ([4]; Day 1, males, Min) of 1400 ng/mL and a tl/2 ([4]; Day 1, males, Min) of 5.4 h.

From patent US11684598B2, “Use of cannabinoids in the treatment of epilepsy” (priority 2015, dated 2023)
